Experimental data from US10011573B2, “Human androgen receptor DNA-binding domain (DBD) compounds as therapeutics and methods for their use” (The University of British Columbia, priority 2014, dated 2018).
pIC50: −log10 of the molar value. “Also recorded” adds a separate entry of the source.

How the values were obtained:
full-length human AR = target: T1, full-length human AR (Homo sapiens, UniProt P10275); test: ARR3tk-luciferase reporter assay in PC3 cells, wild-type AR; format: cell-based; settings: transient AR, R1881
T1 construct: expressed in transfected cells; host or cells: PC3 (AR-negative human prostate cancer cells)
T1 sequence (P10275 1-920): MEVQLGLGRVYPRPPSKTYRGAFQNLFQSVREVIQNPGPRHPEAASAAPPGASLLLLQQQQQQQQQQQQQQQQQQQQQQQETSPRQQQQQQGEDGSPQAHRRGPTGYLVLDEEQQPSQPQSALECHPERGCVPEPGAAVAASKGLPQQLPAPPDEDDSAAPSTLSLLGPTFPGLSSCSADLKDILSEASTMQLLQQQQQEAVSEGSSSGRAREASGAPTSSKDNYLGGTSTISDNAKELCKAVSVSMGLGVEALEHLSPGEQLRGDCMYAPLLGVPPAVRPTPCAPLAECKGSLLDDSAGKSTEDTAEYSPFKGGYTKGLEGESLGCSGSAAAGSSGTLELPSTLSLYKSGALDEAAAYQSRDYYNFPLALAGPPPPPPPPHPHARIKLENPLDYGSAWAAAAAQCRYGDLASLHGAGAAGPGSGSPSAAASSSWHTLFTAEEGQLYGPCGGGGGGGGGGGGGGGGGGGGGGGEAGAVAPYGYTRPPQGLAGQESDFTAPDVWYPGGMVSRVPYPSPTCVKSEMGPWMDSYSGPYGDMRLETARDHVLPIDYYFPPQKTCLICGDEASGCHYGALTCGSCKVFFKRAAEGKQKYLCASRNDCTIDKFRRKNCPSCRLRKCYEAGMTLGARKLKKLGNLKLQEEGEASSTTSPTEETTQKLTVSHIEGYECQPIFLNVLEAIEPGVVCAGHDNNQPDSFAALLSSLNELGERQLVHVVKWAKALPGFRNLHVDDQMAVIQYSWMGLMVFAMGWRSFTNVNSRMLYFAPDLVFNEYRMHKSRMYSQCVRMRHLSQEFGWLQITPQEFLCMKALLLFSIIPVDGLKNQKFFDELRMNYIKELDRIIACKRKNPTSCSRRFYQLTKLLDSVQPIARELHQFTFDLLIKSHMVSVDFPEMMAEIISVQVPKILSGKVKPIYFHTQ
Protocol: 9. Transient Transfection: The PC3/MCF7 cells were seeded into a 96-well plate (2,000 cells/well). After 24 hrs, the wild-type AR (50 ng/well)/AR mutants and AR3TK-luciferase plasmids (1:3) were co-transfected into PC3 cells or ERE-luciferase (50 ng/well) was transfected into MCF7 cells using transfection reagent TT20. 24 hrs after the transfection, the cells were treated with the compounds at various concentrations. And 24 hrs later, the cells were lysed and the reading was taken using a luminometer.

endogenous wild type AR = test: ARR3tk-luciferase assay in R1-AD1 cells; format: cell-based, human
[1] = target: T2, AR binding to PSA and FKBP5 enhancer (Homo sapiens, UniProt P10275, T878A); test: Chromatin immunoprecipitation (ChIP) in LNCaP cells; format: cell-based; settings: R1881, 24 h
T2 construct: endogenous in cells; host or cells: LNCaP (LN-ARR2PB-eGFP reporter line for A1; parental LNCaP for ChIP)
T2 sequence (P10275 whole entry T878A): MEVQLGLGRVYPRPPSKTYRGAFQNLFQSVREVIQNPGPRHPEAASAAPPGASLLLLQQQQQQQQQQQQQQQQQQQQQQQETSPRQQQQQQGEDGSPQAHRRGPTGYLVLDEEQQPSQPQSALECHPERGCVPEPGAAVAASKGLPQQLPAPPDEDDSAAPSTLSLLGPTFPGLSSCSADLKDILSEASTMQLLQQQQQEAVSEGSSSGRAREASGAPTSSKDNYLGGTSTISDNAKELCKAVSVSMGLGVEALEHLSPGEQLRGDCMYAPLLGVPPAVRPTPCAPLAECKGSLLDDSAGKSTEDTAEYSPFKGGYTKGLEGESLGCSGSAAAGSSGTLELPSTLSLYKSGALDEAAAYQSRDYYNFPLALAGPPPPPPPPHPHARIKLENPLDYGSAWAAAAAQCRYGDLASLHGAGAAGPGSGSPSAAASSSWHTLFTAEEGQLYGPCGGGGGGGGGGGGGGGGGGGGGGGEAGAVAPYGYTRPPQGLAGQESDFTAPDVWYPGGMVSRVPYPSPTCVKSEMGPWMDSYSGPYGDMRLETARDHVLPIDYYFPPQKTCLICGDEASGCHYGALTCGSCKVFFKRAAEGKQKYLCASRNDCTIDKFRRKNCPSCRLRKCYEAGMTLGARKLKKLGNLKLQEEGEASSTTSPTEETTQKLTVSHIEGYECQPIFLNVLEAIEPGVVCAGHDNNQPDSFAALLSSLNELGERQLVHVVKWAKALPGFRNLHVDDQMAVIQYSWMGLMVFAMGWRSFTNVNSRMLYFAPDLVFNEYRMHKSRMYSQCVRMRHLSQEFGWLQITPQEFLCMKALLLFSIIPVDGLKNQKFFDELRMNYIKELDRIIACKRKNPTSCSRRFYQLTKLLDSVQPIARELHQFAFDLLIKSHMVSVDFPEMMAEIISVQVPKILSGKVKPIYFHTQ

FKBP5 = test: Western blot FKBP5 protein in R1-AD1 cells; format: cell-based, human
Protocol: Cell lysates (40 μl) from luciferase assays (96-well plate) were separated on a 10% SDS-polyacrylamide mini gel. Protein was transferred to methanol-charged PVDF membranes and probed with anti-AR441 (mouse, Sigma™) monoclonal primary antibody. Blots were also probed with polyclonal anti-actin (rabbit, Sigma™) to show equal loading and polyclonal anti-PARP/anti-cleaved PARP (rabbit, Sigma™) to test for induction of apoptosis. Lysates from CWR-R1 cells were additionally probed with polyclonal anti-FKBP5 (rabbit, Sigma™) following 2 days of incubation with compounds.

YFP-AR = target: T3, YFP-AR (Homo sapiens, UniProt P10275); test: Luciferase assay with YFP-AR in PC3 cells; format: cell-based
T3 construct: plasmids encoding YFP-tagged full-length AR (yellow fluorescent protein, YFP-AR); expressed in transfected cells; host or cells: PC3
T3 sequence (P10275 1-920): T1 sequence (P10275 1-920)
Source text: the underlined primer sections anneal to the specified template, although their 5′-extensions (italicized) are complementary to the corresponding primer sequence of the other PCR. Plasmid assembly is achieved by mixing the PCR products from each reaction (Klock, H. E. et al. (2008) Combining the polymerase incomplete primer extension method for cloning and mutagenesis with microscreening to accelerate structural genomics efforts. Proteins 71, 982-994), followed by transformation into chemically competent bacteria. A similar strategy was used to clone the AR-DBD+hinge into the Pan4 vector (avidity) expressing the N-terminal biotinylation sequence ([…] ) and C-terminal His tag. YFP-AR plasmid was a gift from Dr. Jan Trapman (van Royen, M. E. et al. (2012) Stepwise androgen receptor dimerization. J. Cell Sci. 125, 1970-1979) and is based on pEYFP-C1 (Clontech™). YFP-V7 was constructed by polymerase incomplete primer extension method using the following primers and templates: AR-V7 insert from pcDNA3. AR-V7 template

LNCaP xenograft = test: Castration-resistant LNCaP xenografts in mice; settings: 100 mg/kg i.p. twice daily, 4 weeks
Protocol: 6-8-Week-old nude mice (Harlan Sprague-Dawley) weighing 25-31 g were subcutaneously inoculated with LNCaP cells (106 cells in BD Matrigel, BD Biosciences) at the posterior dorsal site. Tumor volume, body weight, and serum PSA levels were measured weekly. When serum PSA levels reached more than 25 ng/ml, mice were castrated. […] Calipers were used to measure the three perpendicular axes of each tumor to calculate the tumor volume. Mice were also weighed weekly and monitored daily for signs of toxicity, including death, lethargy, blindness, and disorientation

[2] = target: T4, AR hormone binding site (recombinant wild type LBD) (Rattus norvegicus, UniProt P15207); test: Androgen displacement assay (Polar Screen Androgen Receptor Competitor Green Assay Kit)
T4 construct: displace DHT from the ABS site of recombinant wild type LBD
T4 sequence (P15207 651-882 limits assumed): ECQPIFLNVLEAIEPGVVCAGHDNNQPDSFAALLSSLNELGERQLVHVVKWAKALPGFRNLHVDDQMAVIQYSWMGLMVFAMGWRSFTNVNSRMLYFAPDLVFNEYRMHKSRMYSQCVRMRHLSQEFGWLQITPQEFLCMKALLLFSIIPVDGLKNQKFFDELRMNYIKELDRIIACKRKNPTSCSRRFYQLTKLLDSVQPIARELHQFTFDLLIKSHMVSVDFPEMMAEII
Protocol: 5. Androgen displacement assay: The androgen displacement was assessed with the Polar Screen Androgen Receptor Competitor Green Assay Kit as per the instructions of the manufacturer (Lack, Axerio-Cilies et al. 2011).
The ability of the above chemicals to displace DHT from the ABS site of recombinant wild type LBD was measured using a fluorescent polarization assay (PolarScreen™, Life Technologies) at various concentrations.

AR AF2 site = AR AF2 site (Homo sapiens, UniProt P10275); test: SRC2-3 peptide displacement assay (fluorescence polarization); format: binding
Protocol: 6. SRC2-3 peptide displacement assay: The AR AF2 specific peptide displacement was assayed as previously described.

SMILES	pIC50 (full-length human AR)	inhibition of wild type AR transcriptional activity (endogenous wild type AR)	AR pulldown of the PSA and FKBP5 enhancer [1]	FKBP5 protein expression, R1-AD1 cells (FKBP5)	inhibition of YFP-AR driven luciferase expression (YFP-AR)	toxic effect on animals (LNCaP xenograft)	LNCaP xenograft tumor volume (LNCaP xenograft; castrated mice, 100 mg/kg)	serum PSA (LNCaP xenograft; castrated mice, 100 mg/kg)	androgen displacement from AR HBS [2]	displacement of peptide in the AF2 binding site (AR AF2 site)
Brc1ncn(-c2csc(N3CCOCC3)n2)c1Br [Compound 14449]	6.47	could inhibit	reduced AR pulldown	reduced	could be inhibited	no observable toxic effect	reduces tumor volume; also recorded: inhibited to levels comparable with enzalutamide treatment	abolishes PSA production; also recorded: inhibited to levels comparable with enzalutamide treatment		
c1ccc(-c2csc(N3CCOCC3)n2)cc1 [Compound 14228, 4-(4-phenylthiazol-2-yl)morpholine]	5.63	could inhibit		reduced	could be inhibited				does not displace androgen	Neither does it displace the peptide
